According to patent publication US20150305333A1, “USE OF GLUCOSAMINE AMIDES AS PLANT GROWTH AND YIELD ENHANCERS” (PIONEER HI-BRED INTERNATIONAL, INC., priority 2012, published 2015):

Tests used:
[1] = system: Superior potatoes; assay: Potato field trial 2011: emergence, flowering, vigor, biomass; type: in vivo; settings: for Crop Vigor (1-5 Scale): 3=same as untreated check, 5=visually superior; for Plant Biomass: 117 DAP, above ground
Method: Seed treatments included an Untreated Control, NPG applied as a seed treatment, and NPG applied as a seed treatment followed by two foliar applications. Aqueous solutions of NPG were applied at a 10^−7 M concentration to seed pieces using a spray nozzle and left to soak on a plastic sheet for 20 min.
Foliar NPG applications were performed 36 and 45 days after planting. Plants were sprayed using a four-nozzle hollow-cone boom containing ceramic disks and CO2 propellant at a speed of 4.5 km/h and 40 psi. The 36 day application utilized a 2.0 L mix size and spray rate of 200 L/ha water volume. The 45 day application utilized a 3.0 L mix size and spray rate of 300 L/ha water volume. Seeds pieces designated for use as the Untreated Control also received the fungicide maintenance treatment.
The seed pieces were beginning to sprout when planted on June 8th in a loam composed of 34% sand, 48% silt and 18% clay and 2.9% organic matter.
Potatoes were planted at a rate of 25,000 seed pieces/ha to a depth of 20 cm and hilled using a tractor mounted potato hiller. Weeds were controlled using 3 L/ha of 40.6 wt % linuron. Insects were controlled using 250 ml/ha 18.4 wt % chlorantraniliprole and 80 g/ha 70 wt % acetamiprid insecticides. Disease was controlled using a tank mix of 1.6 kg/ha 75 wt % mancozeb M and 225 g/ha 60 wt % cymoxanil fungicides. Before harvest, plants were sprayed twice (seven days apart) with 39.5 wt % diquat dibromide herbicide at a rate of 2 L/ha. All of the products are industry standards and representative of what is used in commercial production.
The trial was conducted using a randomized complete block design with a plot size of 2 m by 8 m with a 100 cm row spacing, 30 cm plant spacing and four replications. Due to wet weather, the soil was damp and cloddy during the planting and hilling process.
Treatments were compared on a “Vigor Scale” of 1 to 5 as follows:
Potato Plant Biomass was determined at 117 DAP by harvesting five plants above ground level from each plot (Table 7).

[2] = system: canola seeds; assay: Petri dish seed germination assay, canola; type: in vivo; settings: Salt Stress (100 mM NaCl)
Method: A series of Petri dish seed assays was conducted to evaluate the effects NPG on the seed germination rates of corn, soybean, and canola seeds subjected to cold stress, salt stress and non-stressed conditions (salt stress only for canola). Assays were performed with ten replications of ten seeds/plate (100 total seeds). NPG was applied to seeds at the specified concentrations prior to being placed in Petri plates. Seeds designated for Salt Stress Experiments 1 & 2 were placed in Petri dishes containing a 100 mM NaCl solution and incubated at 21° C.-22° C. in the dark. Cold stress Petri dishes were incubated at 15° C. in the dark. Untreated Controls were incubated at 21° C.-22° C. in the dark as were seeds utilized in the separately conducted non-stressed germination assays. Data was recorded as percent germination at designated times after plating. Statistical analyses were performed using one-way Anova and Kruskal-Wallis one-way analysis of variance on rank combined with Dunn's all pairwise multiple comparison procedure (α=0.05).

[3] = 10^−7M seed treatment + Foliar, 20 DAP
[4] = 10^−7M seed treatment + Foliar, 28 DAP
[5] = 10^−7M seed treatment + Foliar, 40 DAP

CCCCCCC=CCCCCCCCC(=O)NC1C(OC)OC(CO)C(O)C1O [NPG, Methyl 2-deoxy-2-N-(hexadece-9,10-cis-eneoyl)-β-D-glucopyranoside]
Potato Emergence [1, 3]: 36a % | Crop Vigor (1-5 Scale) [1, 3]: 4.6b | Potato Emergence [1, 4]: 38a % | Crop Vigor (1-5 Scale) [1, 4]: 3.9a | Potato Flowering [1, 5]: 22b % | Crop Vigor (1-5 Scale) [1, 5]: 3.6a | Crop Vigor (1-5 Scale) ([1]; 10^−7M seed treatment + Foliar, 49 DAP): 4.1c | Plant Biomass ([1]; 10^−7M seed treatment + Foliar): 2.56a kg/5 Plants | Potato Emergence ([1]; 10^−7M seed treatment, 20 DAP): 30a % | Crop Vigor (1-5 Scale) ([1]; 10^−7M seed treatment, 20 DAP): 2.9a | Potato Emergence ([1]; 10^−7M seed treatment, 28 DAP): 39a % | Crop Vigor (1-5 Scale) ([1]; 10^−7M seed treatment, 28 DAP): 2.9a | Potato Flowering ([1]; 10^−7M seed treatment, 40 DAP): 0.0a % | Crop Vigor (1-5 Scale) ([1]; 10^−7M seed treatment, 40 DAP): 3.1a | Crop Vigor (1-5 Scale) ([1]; 10^−7M seed treatment, 49 DAP): 3.5b | Plant Biomass ([1]; 10^−7M seed treatment): 2.35a kg/5 Plants | Canola Seed Germination ([2]; 10^−6M, 30 HAP): 14b % | Canola Seed Germination ([2]; 10^−6M, 39 HAP): 67.3ab % | Canola Seed Germination ([2]; 10^−6M, 48 HAP): 84a % | Canola Seed Germination ([2]; 10^−7M, 30 HAP): 22.7ab % | Canola Seed Germination ([2]; 10^−7M, 39 HAP): 80.7a % | Canola Seed Germination ([2]; 10^−7M, 48 HAP): 88.7a %
